Key:
Type in all cases: biochemical
[1] = molecular target: T1, KDM5C (Homo sapiens, UniProt P41229); experiment: MALDI MS activity assay, recombinant KDM5C catalytic domain; conditions: peptide 10 μM, 1 h, 37 °C, MALDI-TOF MS; for observed arginine demethylation activity: KDM5C 2 μM, 2OG 100 μM, ascorbate 100 μM, Fe(II) 10 μM, 50 mM HEPES pH 7.5, −14 Da shift
T1 construct: KDM5C1–765 was produced as an N-terminally His6-tagged protein in Sf9 cells; His6 (N); made in house; host or cells: Sf9 cells (provided by the Structural Genomics Consortium)
T1 sequence (P41229 1-765): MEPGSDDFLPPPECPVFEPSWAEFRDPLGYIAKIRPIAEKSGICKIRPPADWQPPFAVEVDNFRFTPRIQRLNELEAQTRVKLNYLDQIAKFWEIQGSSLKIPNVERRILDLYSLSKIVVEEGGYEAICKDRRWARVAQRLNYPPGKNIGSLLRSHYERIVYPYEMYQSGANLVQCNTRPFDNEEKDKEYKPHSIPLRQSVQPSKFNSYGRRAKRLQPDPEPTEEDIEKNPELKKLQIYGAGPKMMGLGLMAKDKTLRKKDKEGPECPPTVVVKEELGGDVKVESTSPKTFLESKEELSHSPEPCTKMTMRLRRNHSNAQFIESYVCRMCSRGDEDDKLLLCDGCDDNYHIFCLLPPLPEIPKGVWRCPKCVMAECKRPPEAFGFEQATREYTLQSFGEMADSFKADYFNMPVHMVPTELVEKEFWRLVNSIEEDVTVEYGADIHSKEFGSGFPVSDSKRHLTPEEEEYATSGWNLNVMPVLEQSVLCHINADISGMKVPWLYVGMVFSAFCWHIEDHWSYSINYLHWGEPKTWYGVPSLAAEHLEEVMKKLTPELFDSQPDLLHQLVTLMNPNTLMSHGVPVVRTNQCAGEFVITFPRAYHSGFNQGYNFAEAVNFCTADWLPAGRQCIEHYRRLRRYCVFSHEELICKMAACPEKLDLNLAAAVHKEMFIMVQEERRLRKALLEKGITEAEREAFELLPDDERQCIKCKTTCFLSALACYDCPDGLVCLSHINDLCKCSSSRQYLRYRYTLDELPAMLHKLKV
Experimental: (§1) MALDI MS activity assays. Recombinant proteins (2 μM) were incubated with peptides (10 μM, sequences are given in Supplementary Table 1) and cofactors/substrates for 1 h at 37 °C, unless otherwise specified. Reactions were quenched with 1:1 (v/v) methanol and analysed with MALDI MS. Assay conditions for each enzyme are given in Supplementary Table 2. Negative controls without enzyme were included.
(§2) Supplementary Table 2 Assay conditions with truncated recombinant protein. […]

[2] = molecular target: T2, KDM6B (Homo sapiens, UniProt O15054); experiment: MALDI MS activity assay, recombinant KDM6B catalytic domain; conditions: KDM6B 2 μM, peptide 10 μM, 1 h, 37 °C, 2OG 100 μM, ascorbate 100 μM, Fe(II) 10 μM, 50 mM HEPES pH 7.5, 150 mM NaCl; MALDI-TOF MS, −14 Da shift
T2 construct: His6 (N); made in house; host or cells: Escherichia coli
T2 sequence (O15054 1141-1590 limits assumed): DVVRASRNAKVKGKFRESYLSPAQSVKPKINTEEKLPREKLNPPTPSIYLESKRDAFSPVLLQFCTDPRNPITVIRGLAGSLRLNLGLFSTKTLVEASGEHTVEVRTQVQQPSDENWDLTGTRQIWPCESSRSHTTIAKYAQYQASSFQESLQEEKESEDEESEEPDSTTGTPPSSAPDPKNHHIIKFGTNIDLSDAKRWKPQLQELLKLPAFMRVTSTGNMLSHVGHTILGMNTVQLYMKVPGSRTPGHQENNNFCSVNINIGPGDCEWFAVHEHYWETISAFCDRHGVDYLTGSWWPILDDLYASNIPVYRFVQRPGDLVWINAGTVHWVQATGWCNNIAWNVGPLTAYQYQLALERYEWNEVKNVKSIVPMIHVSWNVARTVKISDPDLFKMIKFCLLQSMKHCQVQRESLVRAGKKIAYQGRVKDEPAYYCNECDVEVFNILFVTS
Experimental: as §1
(§3) Supplementary Table 2 Assay conditions with truncated recombinant protein.
(§4) Supplementary Table 3 Assay conditions with full length Flag-tagged KDMs.

[3] = molecular target: T3, KDM4E (Homo sapiens, UniProt B2RXH2); experiment: Formaldehyde dehydrogenase-coupled demethylation assay, KDM4E; conditions: for kcat/KM: KDM4E; for kcat / Km: KDM4E catalytic domain, apparent, preliminary, 37 °C, mean±s.e.m., n=3; for kcat: FDH/NAD+-coupled assay; for Km: FDH/NAD+-coupled formaldehyde assay, 2OG 200 μM, Fe(II) 10 μM, ascorbate 100 μM
T3 construct: His6 (N); made in house; host or cells: Escherichia coli
T3 sequence (B2RXH2 1-337): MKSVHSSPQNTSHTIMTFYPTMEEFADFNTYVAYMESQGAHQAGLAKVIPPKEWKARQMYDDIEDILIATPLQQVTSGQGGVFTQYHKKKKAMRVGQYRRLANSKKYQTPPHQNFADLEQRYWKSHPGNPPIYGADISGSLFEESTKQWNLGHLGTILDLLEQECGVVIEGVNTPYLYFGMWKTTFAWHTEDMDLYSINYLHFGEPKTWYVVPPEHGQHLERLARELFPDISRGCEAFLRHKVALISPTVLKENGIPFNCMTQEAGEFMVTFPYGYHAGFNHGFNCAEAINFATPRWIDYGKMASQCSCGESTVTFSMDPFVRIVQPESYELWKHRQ
Experimental: (§5) Formaldehyde dehydrogenase-coupled assays. Preliminary kinetic parameters were determined by detection of the formaldehyde by-product of the demethylation reaction using a FDH (formaldehyde dehydrogenase-coupled)/NAD^+-coupled assay as previously described. Assays were carried out in buffer (enzyme-dependent) with the addition of Fe(II) ammonium sulfate (10 μM), sodium ascorbate (100 μM), 2OG (200 μM), NAD^+ (500 μM), enzyme (0.2–4 μM) and FDH enzyme (0.025 U per assay, Sigma-Aldrich; total volume 30 μl) and were conducted at 37 °C in clear-bottom black 384-well plates. […] The Km and Vmax values were calculated from the reaction rate during the linear phase of formaldehyde production, as determined by the slope of the fluorescence signal recorded.

[4] = molecular target: T1, KDM5C; experiment: Formaldehyde dehydrogenase-coupled demethylation assay, KDM5C
Experimental: as §5

[5] = molecular target: T4, KDM3A (Homo sapiens, UniProt Q9Y4C1); experiment: MALDI MS activity assay, recombinant KDM3A catalytic domain; conditions: KDM3A 2 μM, peptide 10 μM, 1 h, 37 °C, 2OG 100 μM, ascorbate 100 μM, Fe(II) 50 μM, 50 mM HEPES pH 7.5; MALDI-TOF MS, −14 Da shift
T4 construct: KDM3A515–1,317; His6 (N); made in house; host or cells: Sf9 cells
T4 sequence (Q9Y4C1 515-1317 limits assumed): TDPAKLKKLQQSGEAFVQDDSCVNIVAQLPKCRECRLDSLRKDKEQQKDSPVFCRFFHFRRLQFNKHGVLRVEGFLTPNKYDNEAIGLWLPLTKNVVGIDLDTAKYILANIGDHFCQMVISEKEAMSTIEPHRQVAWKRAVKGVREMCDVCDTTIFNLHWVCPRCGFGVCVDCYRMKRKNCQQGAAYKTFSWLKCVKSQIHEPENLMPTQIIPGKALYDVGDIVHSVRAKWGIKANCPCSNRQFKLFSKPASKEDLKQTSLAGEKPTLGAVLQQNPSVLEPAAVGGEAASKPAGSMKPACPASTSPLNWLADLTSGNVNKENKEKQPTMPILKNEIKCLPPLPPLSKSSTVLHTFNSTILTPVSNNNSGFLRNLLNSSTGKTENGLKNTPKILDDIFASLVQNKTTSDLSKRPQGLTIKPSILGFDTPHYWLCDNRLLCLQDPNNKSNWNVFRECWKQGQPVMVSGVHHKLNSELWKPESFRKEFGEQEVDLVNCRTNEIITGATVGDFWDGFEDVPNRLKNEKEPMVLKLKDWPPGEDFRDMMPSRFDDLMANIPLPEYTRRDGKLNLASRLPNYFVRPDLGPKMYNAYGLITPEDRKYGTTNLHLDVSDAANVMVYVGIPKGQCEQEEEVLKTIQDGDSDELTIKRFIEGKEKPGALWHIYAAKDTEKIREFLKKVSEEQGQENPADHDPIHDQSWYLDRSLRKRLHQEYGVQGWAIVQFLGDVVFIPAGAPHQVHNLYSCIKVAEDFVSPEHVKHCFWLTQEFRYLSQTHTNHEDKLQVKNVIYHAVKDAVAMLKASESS
Experimental: as §1, §3, §4

[6] = molecular target: T3, KDM4E; experiment: MALDI MS activity assay, recombinant KDM4E catalytic domain; conditions: peptide 10 μM, 1 h, 37 °C, MALDI-TOF MS; for observed arginine demethylation activity: KDM4E 2 μM, 2OG 200 μM, ascorbate 100 μM, Fe(II) 10 μM, 50 mM HEPES pH 7.5, −14 Da shift
Experimental: as §1, §2

[7] = molecular target: T2, KDM6B; experiment: Formaldehyde dehydrogenase-coupled demethylation assay, KDM6B
Experimental: as §5

[8] = calculated from the average kcat and KM values, μM^−1 s^−1 for this quantity

Substance | observed arginine demethylation activity [1] | observed arginine demethylation activity [2] | observed arginine demethylation activity [5] | observed arginine demethylation activity [6] | also measured
A-Rme2a-TKQTARKSTGGKA [H3(1-15)R2me2a, 'natural' histone H3 peptide asymmetrically dimethylated at R2] | + | − | − | + | demethylation, in words ([1]; KDM5C catalytic domain 2 μM): relatively good RDM substrate; kcat/KM [3]: 0.000114 µM⁻¹ s⁻¹; kcat [3]: 9.9±1.0 × 10^−3 s^−1; Km [3]: 86.9 ± 16.5 µM; kcat/KM [3, 8]: 114.0 × 10^−6; kcat/KM, times lower than that for H3K4me3 ([4]; KDM5C): 14 times; kcat ([4]; KDM5C catalytic domain, apparent, preliminary, FDH/NAD+-coupled assay, 37 °C, mean±s.e.m., n=3): 12.0±0.7 × 10^−3 s^−1; Km ([4]; KDM5C catalytic domain, apparent, preliminary, FDH/NAD+-coupled formaldehyde assay, 37 °C, 2OG 200 μM, Fe(II) 10 μM, ascorbate 100 μM, mean±s.e.m., n=3): 19 ± 1.9 µM; kcat/KM ([4]; KDM5C, calculated from the average kcat and KM values, μM^−1 s^−1 for this quantity): 630.0 × 10^−6; demethylation, in words ([6]; KDM4E catalytic domain 2 μM): relatively good RDM substrate
H3(14-34)K27me3: 21-residue recognized histone H3 N-methylated-lysine peptide substrate for KDM6B |  |  |  |  | kcat ([7]; KDM6B catalytic domain, apparent, preliminary, FDH/NAD+-coupled assay, 37 °C, mean±s.e.m., n=3): 11.7±0.1 × 10^−3 s^−1; Km ([7]; KDM6B catalytic domain, apparent, preliminary, FDH/NAD+-coupled formaldehyde assay, 37 °C, 2OG 200 μM, Fe(II) 10 μM, ascorbate 100 μM, mean±s.e.m., n=3): 6.7 ± 0.6 µM; kcat/KM ([7]; KDM6B, calculated from the average kcat and KM values): 1,750.0 × 10^−6
SG-Rme2a-GKGGKGLGKGGA [H4(1-15)R3me2a, 'natural' histone H4 residues 1-15 peptide asymmetrically dimethylated at R3] | + | − | − | + | kcat [3]: 2.1±0.1 × 10^−3 s^−1; Km [3]: 122 ± 10.1 µM; kcat/KM [3, 8]: 17.7 × 10^−6
STGGKAP-Rme2a-KQLATKA [H3 (10–24) R17me2a, 'natural' histone H3 peptide asymmetrically dimethylated at R17] | − | − | − | − | 

Continued, in another order:

observed arginine demethylation activity [1] | observed arginine demethylation activity [2] | observed arginine demethylation activity [5] | observed arginine demethylation activity [6] | Substance | also measured
− | − | − | + | SG-Rme2s-GKGGKGLGKGGA [H4 (1–15) R3me2s, 'natural' histone H4 residues 1-15 peptide symmetrically dimethylated at R3] | 
− | − | − | − | SG-Rme-GKGGKGLGKGGAK [H4 (1–15) R3me, 'natural' histone H4 peptide monomethylated at R3] | 
− | − | − | − | STGGKAP-Rme-KQLATKA [H3 (10–24) R17me, 'natural' histone H3 peptide monomethylated at R17] | 
